Results taken from PubChem BioAssay (NCI).
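Step 1: Grow cells in 96-well plates. Step 2: Expose to compound for 48 hours at 5 concentrations. Step 3: Interpolate endpoints linearly; if unreached, use highest concentration. Abbreviation: GI50, concentration required for 50% inhibition of growth. TGI denotes the concentration required for complete inhibition of growth.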

How the values were obtained:
Experiment in all cases: DTP human tumour cell line panel, 48 h
DLD-1 colon = test system: DLD-1 colon
DMS 273 small cell lung = test system: DMS 273 small cell lung
HOP-18 NSCLC = test system: HOP-18 NSCLC
LXFL 529 NSCLC = test system: LXFL 529 NSCLC
M19-MEL melanoma = test system: M19-MEL melanoma
XF 498 CNS = test system: XF 498 CNS
T-47D breast = test system: T-47D breast
RXF-631 renal = test system: RXF-631 renal
MDA-N = test system: MDA-N

Structure (SMILES): CC1CC[P+](c2ccccc2)(c2ccccc2)CC1
- TGI (DLD-1 colon): > 100 µM
- TGI (DMS 273 small cell lung): > 100 µM
- TGI (HOP-18 NSCLC): > 100 µM
- TGI (LXFL 529 NSCLC): > 100 µM
- TGI (M19-MEL melanoma): > 100 µM
- TGI (XF 498 CNS): 77.4 µM

Structure (SMILES): C=CCc1c(O)c(C(=O)/C=C/c2ccccc2)c(OC)c2ccoc12
- GI50 (T-47D breast): 4.11 µM
- TGI (T-47D breast): 22.4 µM

Structure (SMILES): CCn1ccc(NS(=O)(=O)c2ccc(N)cc2)nc1=O
- GI50 (T-47D breast): > 100 µM
- TGI (T-47D breast): > 100 µM

Structure (SMILES): COc1ccc(/C=C2\c3cc(OC)c(OC)c(OC)c3CC[C@@H]2O)cc1F
- GI50 (T-47D breast): 0.36 µM
- TGI (T-47D breast): > 100 µM

Structure (SMILES): COc1cc(/C=C/C(=O)c2c(C)nc3ccccc3c2C)ccc1OCCCN1CCN(C(=O)c2ccco2)CC1
- GI50 (T-47D breast): 2.5 µM
- TGI (T-47D breast): 15 µM

Structure (SMILES): COc1cc(/C=C2/C(=O)N(C(=O)OCc3ccccc3)C(Cc3cc(OC)c(OC)c(C)c3OC)C(=O)N2Cc2ccccc2)c(OC)c(C)c1OC (configuration not stated)
- TGI (DLD-1 colon): > 100 µM
- TGI (DMS 273 small cell lung): > 100 µM
- TGI (HOP-18 NSCLC): > 100 µM
- TGI (LXFL 529 NSCLC): > 100 µM
- TGI (M19-MEL melanoma): > 100 µM
- TGI (RXF-631 renal): > 100 µM

Structure (SMILES): CCN=C(C#N)NCC
- TGI (DLD-1 colon): > 100 µM
- TGI (DMS 273 small cell lung): > 100 µM
- TGI (HOP-18 NSCLC): > 100 µM
- TGI (LXFL 529 NSCLC): > 100 µM
- TGI (M19-MEL melanoma): > 100 µM
- TGI (XF 498 CNS): > 100 µM

Structure (SMILES): CCc1cccc(C)c1NC(=S)NC(=O)c1ccccc1C(=O)NC(=S)Nc1c(C)cccc1CC
- TGI (DLD-1 colon): > 100 µM
- TGI (DMS 273 small cell lung): > 100 µM
- TGI (HOP-18 NSCLC): > 100 µM
- TGI (LXFL 529 NSCLC): > 100 µM
- TGI (M19-MEL melanoma): > 100 µM

Structure (SMILES): COCCn1cc(-c2csc(-c3c[nH]c4ccc(Br)cc34)n2)c2cccnc21
- GI50 (T-47D breast): 1.97 µM
- TGI (T-47D breast): 21 µM

Structure (SMILES): O=C(O)Cc1cccc2c(=O)c3cccc([N+](=O)[O-])c3oc12
- TGI (MDA-N): > 100 µM
- TGI (T-47D breast): > 100 µM

Structure (SMILES): COc1cc2c(cc1C)NC(=O)/C2=C\c1c[nH]c2ccccc12
- GI50 (T-47D breast): 13.2 µM
- TGI (T-47D breast): 45.8 µM

Structure (SMILES): Cc1ccccc1C1CC(c2ccccc2)=NO1 (configuration not stated)
- TGI (DLD-1 colon): > 100 µM
- TGI (DMS 273 small cell lung): > 100 µM
- TGI (HOP-18 NSCLC): > 100 µM
- TGI (LXFL 529 NSCLC): > 100 µM
- TGI (RXF-631 renal): > 100 µM

Structure (SMILES): C=C(CCCO)[C@@H]1CC[C@@](C)(O)[C@H]1C
- TGI (DMS 273 small cell lung): > 100 µM
- TGI (HOP-18 NSCLC): > 100 µM
- TGI (LXFL 529 NSCLC): > 100 µM
- TGI (M19-MEL melanoma): > 100 µM
- TGI (RXF-631 renal): > 100 µM
- TGI (XF 498 CNS): > 100 µM

Structure (SMILES): CN(C)c1ccc2nc(CC(O)(C(F)(F)F)C(F)(F)F)ccc2c1
- TGI (MDA-N): > 10 µM
- TGI (T-47D breast): > 10 µM

Structure (SMILES): O=C(O[C@H]1CCN2C[C@H]3C[C@H](CN4C(=O)CCC[C@H]34)[C@@H]2C1)c1ccc(O)cc1
- TGI (MDA-N): > 100 µM
- TGI (T-47D breast): > 100 µM

Structure (SMILES): O=[N+]([O-])c1cc2c([N+](=O)[O-])cccc2o1
- TGI (MDA-N): 23.6 µM
- TGI (T-47D breast): > 100 µM

Structure (SMILES): C=CCN(N=O)C(=O)NCCCCC(NC(C)=O)C(=O)NCc1ccccc1 (configuration not stated)
- TGI (DMS 273 small cell lung): > 100 µM
- TGI (HOP-18 NSCLC): > 100 µM
- TGI (LXFL 529 NSCLC): > 100 µM
- TGI (M19-MEL melanoma): > 100 µM
- TGI (RXF-631 renal): > 100 µM
- TGI (XF 498 CNS): > 100 µM

Structure (SMILES): Cc1ccc(S(=O)(=O)N2CCc3ccc(O)c4c3C2Cc2ccc3c(c2-4)OCO3)cc1 (configuration not stated)
- GI50 (T-47D breast): 0.968 µM
- TGI (T-47D breast): 51 µM

Structure (SMILES): COc1ccc(CCc2cc(OC)c(O)c(OC)c2)cc1
- TGI (DLD-1 colon): > 100 µM
- TGI (DMS 273 small cell lung): > 100 µM
- TGI (LXFL 529 NSCLC): > 100 µM
- TGI (M19-MEL melanoma): > 100 µM
- TGI (RXF-631 renal): > 100 µM
- TGI (XF 498 CNS): > 100 µM

Structure (SMILES): O=c1c(Cl)cc2nc3ccccc3sc-2c1Cl
- TGI (T-47D breast): > 100 µM

Structure (SMILES): COc1ccc(OC)c(/C=C/c2nc(SCc3ccccc3)n(-c3ccc(Cl)cc3)n2)c1
- GI50 (T-47D breast): 11.5 µM
- TGI (T-47D breast): 84.6 µM

Structure (SMILES): C/C(=N/N=C(N)N)c1ccc(NC(=O)Nc2ccc(/C(C)=N/N=C(N)N)cc2)cc1
- GI50 (T-47D breast): 8.29 µM
- TGI (T-47D breast): 34.6 µM

Structure (SMILES): Nc1ccc(Sc2c3ccccc3nc3ccccc23)cc1
- TGI (DLD-1 colon): 19.7 µM
- TGI (DMS 273 small cell lung): 28.8 µM
- TGI (HOP-18 NSCLC): 41.7 µM
- TGI (LXFL 529 NSCLC): 21 µM
- TGI (M19-MEL melanoma): 47.9 µM
- TGI (MDA-N): 38.5 µM
- TGI (T-47D breast): 5.6 µM
- TGI (XF 498 CNS): 28 µM

Structure (SMILES): COc1cc(/C=C2\C[C@H]3[C@@H]4CC=C5C[C@@H](OC(C)=O)CC[C@]5(C)[C@H]4CC[C@]3(C)[C@H]2OC(C)=O)ccc1OCCN1CCCC1
- GI50 (T-47D breast): 12.4 µM
- TGI (T-47D breast): 32 µM

Structure (SMILES): CSc1ccc(C(=O)/C=C/c2ccccc2Cl)cc1
- GI50 (T-47D breast): 23.5 µM
- TGI (T-47D breast): > 100 µM

Structure (SMILES): CCOC1CC2OC(=O)C1C=C2C(=O)OC (configuration not stated)
- TGI (DLD-1 colon): 65.8 µM
- TGI (HOP-18 NSCLC): > 100 µM
- TGI (LXFL 529 NSCLC): 36.1 µM
- TGI (M19-MEL melanoma): > 100 µM
- TGI (XF 498 CNS): 53.9 µM

Structure (SMILES): CC(=O)O[C@H]1CC2C=CC3C(CCC31)O2 (some centres not stated)
- TGI (DLD-1 colon): > 100 µM
- TGI (DMS 273 small cell lung): > 100 µM
- TGI (HOP-18 NSCLC): > 100 µM
- TGI (LXFL 529 NSCLC): > 100 µM
- TGI (M19-MEL melanoma): > 100 µM
- TGI (XF 498 CNS): > 100 µM

Structure (SMILES): CC(C)C1N2CCCCC2[C@@H]2c3[nH]c4ccccc4c3CCN12 (some centres not stated)
- TGI (DLD-1 colon): > 100 µM
- TGI (DMS 273 small cell lung): > 100 µM
- TGI (HOP-18 NSCLC): > 100 µM
- TGI (LXFL 529 NSCLC): > 100 µM
- TGI (M19-MEL melanoma): > 100 µM
- TGI (XF 498 CNS): > 100 µM

Structure (SMILES): C/C(=N/Nc1nc(C)cc(=O)[nH]1)C(=O)O
- TGI (MDA-N): > 100 µM
- TGI (T-47D breast): > 100 µM

Structure (SMILES): FC(F)(F)c1cc(Nc2ccc3cc(OCCCN4CCOCC4)ccc3n2)ccc1Cl
- GI50 (T-47D breast): 2.51 µM
- TGI (T-47D breast): 7.51 µM

Structure (SMILES): CC1=C([Se]CC(OC(=O)[C@@H](CO)NC(=O)OC(C)(C)C)C(=O)NCCCCCC(=O)OCc2ccccc2)C(=O)c2ccccc2C1=O (some centres not stated)
- GI50 (T-47D breast): 1.62 µM
- TGI (T-47D breast): 3.95 µM

Structure (SMILES): CCC[CH2][Pb]([Cl])([CH2]CCC)[CH2]CCC
- GI50 (MDA-N): 0.0196 µM
- TGI (MDA-N): 0.0461 µM
- GI50 (T-47D breast): 0.0181 µM
- TGI (T-47D breast): 0.0383 µM

Structure (SMILES): Cc1ccc2nc(NC(=O)/C(=N\NC(=S)NN)C3C(=O)NC(=S)NC3=O)sc2c1
- TGI (DLD-1 colon): > 100 µM
- TGI (DMS 273 small cell lung): > 100 µM
- TGI (HOP-18 NSCLC): > 100 µM
- TGI (LXFL 529 NSCLC): > 100 µM
- TGI (RXF-631 renal): > 100 µM
- TGI (XF 498 CNS): > 100 µM

Structure (SMILES): CC1(C)N=C(N)N=C(N)N1c1cccc(Br)c1
- GI50 (T-47D breast): > 82.7 µM
- TGI (T-47D breast): > 100 µM

Structure (SMILES): COc1ccc2nc(NC(=O)C(=O)NNC(=O)c3ccncc3)sc2c1
- TGI (DLD-1 colon): > 100 µM
- TGI (HOP-18 NSCLC): > 100 µM
- TGI (LXFL 529 NSCLC): > 100 µM
- TGI (M19-MEL melanoma): > 100 µM
- TGI (XF 498 CNS): > 100 µM

Structure (SMILES): Cc1cc(Cl)ccc1NC(=O)C(=O)C(C(=O)c1ccccc1)C1OC(=O)c2ccccc21 (configuration not stated)
- TGI (DLD-1 colon): > 100 µM
- TGI (DMS 273 small cell lung): > 100 µM
- TGI (HOP-18 NSCLC): > 100 µM
- TGI (LXFL 529 NSCLC): > 100 µM
- TGI (M19-MEL melanoma): > 100 µM
- TGI (XF 498 CNS): > 100 µM

Structure (SMILES): CCCCCCCC(=O)[O][Hg][CH2]C1COC([CH2][Hg][O]C(=O)CCCCCCC)CO1 (configuration not stated)
- GI50 (MDA-N): 15.6 µM
- TGI (MDA-N): 30 µM
- GI50 (T-47D breast): 13.1 µM
- TGI (T-47D breast): 46.9 µM

Structure (SMILES): Nc1ncnc2c1ccn2[C@@H]1O[C@H]([C@H](O)c2ccc(Cl)c(F)c2)[C@@H](O)[C@H]1O
- GI50 (T-47D breast): 23.5 µM
- TGI (T-47D breast): > 100 µM
